Columns and labels:
BXPC-3 = assay: Cell viability assay (CCK-8); format: cell-based; details: ADCs; CCK-8, 96 hours; cell RMCA [sic], Pancreas; read-out: IC50 (95% Cl)
Experimental: (§1) Cell viability was determined using Cell Counting Kit 8 (CCK-8). Cells were seeded into 96-well plates at 3000-10000 cells/well. After incubation overnight, drugs were added at different concentrations. Plates were incubated in a 5% CO2, 37° C. humidified chamber for 96 hours. CCK8 reagent was added thereto and the plates were placed back to the incubator until the absorbance at 450 nm of untreated control cells was greater than 1.0. Growth inhibition was measured as the percent growth relative to untreated cells. Dose response curve was generated from the mean values of two or three tests, and IC50 values were calculated using Prism GraphPad software.
(§2) The anti-tumor efficacy of different payloads on different tumor cell lines was detected by CCK-8, and the results are shown in FIG. 5.

CFPAC-1 = assay: Cell viability assay (CCK-8); format: cell-based; details: ADCs; CCK-8, 96 hours; cell CPAC-1 [sic], Pancreas; read-out: IC50 (95% Cl)
Experimental: as §1, §2

COLO205 = assay: Cell viability assay (CCK-8); format: cell-based; details: ADCs; CCK-8, 96 hours; cell printed 'COXC28', Colon; read-out: IC50 (95% Cl)
Experimental: as §1, §2

Capan-1 = assay: Cell viability assay (CCK-8); format: cell-based; details: ADCs; CCK-8, 96 hours; Cxoo-1 [sic], Pancreas; read-out: IC50 (95% Cl)
Experimental: as §1, §2

HCC1806 = assay: Cell viability assay (CCK-8); format: cell-based; details: ADCs; CCK-8, 96 hours; 'HOC1906' [sic], Mamary; read-out: IC50 (95% Cl)
Experimental: as §1, §2

HT29 = assay: Cell viability assay (CCK-8); format: cell-based; details: ADCs; CCK-8, 96 hours; cell '3128' [sic], Colon; read-out: IC50 (95% Cl)
Experimental: as §1, §2

MDA-MB-231 = assay: Cell viability assay (CCK-8); format: cell-based; details: ADCs; CCK-8, 96 hours; cell 'SRM-K9-231' [sic], Mamary; read-out: IC50 (95% Cl)
Experimental: as §1, §2

MDA-MB-468 = assay: Cell viability assay (CCK-8); format: cell-based; details: ADCs; CCK-8, 96 hours; SRM-M9-409, Mammary; read-out: IC50 (95% Cl)
Experimental: as §1, §2

NCI-H1688 = assay: Cell viability assay (CCK-8); format: cell-based; details: ADCs; CCK-8, 96 hours; cell 'HCl-11685' [sic], Lung; read-out: IC50 (95% Cl)
Experimental: as §1, §2

NCIH2452 = assay: Cell viability assay (CCK-8); format: cell-based; details: ADCs; CCK-8, 96 hours; cell 'HOC2401' [sic], Lung; read-out: IC50 (95% Cl)
Experimental: as §1, §2

SCLC-21H = assay: Cell viability assay (CCK-8); format: cell-based; details: ADCs; CCK-8, 96 hours; SRM-C-21H; read-out: IC50 (95% Cl)
Experimental: as §1, §2

SK-MES-1 = assay: Cell viability assay (CCK-8); format: cell-based; details: ADCs; CCK-8, 96 hours; cell 'SK-WSS-7' [sic], Lung; read-out: IC50 (95% Cl)
Experimental: as §1, §2

SKBR3 = assay: Cell viability assay (CCK-8); format: cell-based; details: ADCs; CCK-8, 96 hours; 'SKERS' [sic], Mammary; read-out: IC50 (95% Cl)
Experimental: as §1, §2

SKBR3 cells = assay: Endocytosis and intracellular localization of ADC by confocal microscopy; format: cell-based; details: 5 µg/mL, 37° C., 45 or 90 min
Experimental: SKBR3 cells were incubated with 5 µg/mL of hRS7-VK-PTX or hRS7-VK-SN38 in a 24-well plate (1 × 10^4 cells/well) in a 5% CO2, 37° C. incubator for 45 or 90 min. Cells were washed once with PBS, fixed and permeabilized. After washing, cells were stained with 488 goat anti-human IgG (H&L) or 555 anti-rabbit IgG F(ab′)2 fragment. Nuclear DNA was stained with 4′,6-dimidyl-2-phenylindole (DAPI). Immunofluorescence was recorded with an Olympus BK71 confocal microscope.
SKBR3 cells were incubated with ADC molecules at 37° C. for 45 or 90 min. Unbound ADC was removed by washing cells in a culture medium, then the cells were fixed and permeabilized. The marker proteins LAMP-1, GM130 and clathrin were detected with their respective antibodies and a secondary antibody conjugated to Alex®555 (red). Anti-Trop-2 ADC was detected with DyLight®488-conjugated secondary antibody (green). DAPI was used to stain nuclear DNA (blue).

HCC1806 cells = assay: HCC1806 mouse transplanted tumor model; format: in vivo, BALB/c nu/nu mice
Source text: Five-week-old female athymic BALB/c nu/nu mice were purchased from Charles River Company (Shanghai, China), and mice were randomly divided into 5-6 mice/group. Animal handling and procedures were approved and performed in accordance with the requirements of the Institutional Animal Care and Use Committee (IACUC) of Shanghai Institute of Materia Medica, Chinese Academy of Sciences. All models were inoculated subcutaneously on the side of mice. BXPC-3, HCC1806 and NCIH1688 cells were established by injecting and homogenizing 5 × 10^6 cells in Matrigel matrix. COLO205 cells were established by injecting and suspending 1 × 10^7 cells in Matrigel matrix. […] The percentage of inhibition was calculated by the following formula: (1-average tumor volume of the treatment group/average tumor volume of the control group)×100%. Toxicity of the different treatment groups was assessed by monitoring weight loss.
Mice inoculated with HCC1806 cells (n = 6 per group) were treated on days 7, 10 and 14. Tumors were measured two or three times per week. On day 20, statistical significance between treatment and control groups was assessed using a two-tailed t-test. *P <0.05, comparing hRS7-VK-PTX treatment group with hRS7-VK-SN38 treatment group, data = mean ± SD, the results are shown in FIG. 7b.

[1] = Adverse effects and weight loss of mice treated in the efficacy models; format: in vivo, BALB/c nu/nu mice; details: mouse, in vivo
Source text: Five-week-old female athymic BALB/c nu/nu mice were purchased from Charles River Company (Shanghai, China), and mice were randomly divided into 5-6 mice/group. Animal handling and procedures were approved and performed in accordance with the requirements of the Institutional Animal Care and Use Committee (IACUC) of Shanghai Institute of Materia Medica, Chinese Academy of Sciences. All models were inoculated subcutaneously on the side of mice. BXPC-3, HCC1806 and NCIH1688 cells were established by injecting and homogenizing 5 × 10^6 cells in Matrigel matrix. COLO205 cells were established by injecting and suspending 1 × 10^7 cells in Matrigel matrix. After the tumor volume reached about 200 mm^3, the tumor-bearing mice were randomly divided into treatment groups and a control group according to the tumor volume. Each drug was administered intraperitoneally. Mice were injected at doses of 3 or 10 mg/kg (10 mL/kg). Tumor volume was defined as length × ½ × width × width. The percentage of inhibition was calculated by the following formula: (1-average tumor volume of the treatment group/average tumor volume of the control group)×100%. Toxicity of the different treatment groups was assessed by monitoring weight loss.

hRS7-VK-PTX
IC50 (BXPC-3): 0.633 nM
IC50 (CFPAC-1): 16.8 nM
IC50 (COLO205): 4.52 nM
IC50 (Capan-1): 2.98 nM
IC50 (HCC1806): 0.266 nM
IC50 (HT29): 3.47 nM
IC50 (MDA-MB-231): 1.59 nM
IC50 (MDA-MB-468): 2.68 nM
IC50 (NCI-H1688): 32.4 nM
IC50 (NCIH2452): 1.4 nM
IC50 (SCLC-21H): 2.96 nM
IC50 (SK-MES-1): 10.1 nM
IC50 (SKBR3): 1.74 nM
internalization and intracellular localization (SKBR3 cells): co-localization of hRS7-VK-PTX molecule with lysosomes and clathrin heavy chain
tumor inhibitory effect compared with PTX (HCC1806 cells; HCC1806 model, 30 mg/kg (1.3 mg/kg PTX equivalent)): comparable to that of 10 mg/kg of PTX
inhibition of transplanted tumor (HCC1806 cells; HCC1806 xenograft, intraperitoneal, days 7, 10, 14, P<0.05 vs hRS7-VK-SN38 on day 20): more effective than hRS7-VK-SN38
adverse effects or weight loss in treated mice [1]: did not cause adverse effects or weight loss
